Target: human V1a receptor (Homo sapiens (Human), UniProt P37288)
Assay: human V1a receptor binding studies (3H-Vasopressin, SPA beads)
Settings: membranes of HEK293 cells transiently transfected with human V1a receptor, Ki by Cheng-Prusoff
Experimental: The human V1a receptor was cloned by RT-PCR from total human liver RNA. The coding sequence was subcloned in an expression vector after sequencing to confirm the identity of the amplified sequence. […] Cell membranes were prepared from HEK293 cells transiently transfected with the expression vector and grown in 20 liter fermenters with the following protocol.
50 g of cells are re-suspended in 30 ml freshly prepared ice cold Lysis buffer ([…] HEPES. 1 mM EDTA, 10 mM MgCl2 adjusted to pH=7.4+complete cocktail of protease inhibitor (Roche Diagnostics)). Homogenized with Polytron for 1 min and sonicated on ice for 2×2 minutes at 80% intensity (Vibracell sonicator). The preparation is centrifuged 20 min at 500 g at 4° C., the pellet is discarded and the supernatant centrifuged 1 hour at 43'000 g at 4° C. (19'000 rpm). The pellet is re-suspended in 12.5 ml Lysis buffer+12.5 ml Sucrose 20% and homogenized using a Polytron for 1-2 min. The protein concentration is determined by the Bradford method and aliquots are stored at −80° C. until use. For binding studies 60 mg Yttrium silicate SPA beads (Amersham) are mixed with an aliquot of membrane in binding buffer (50 mM Tris, 120 mM NaCl, 5 mM KCl, 2 mM CaCl2, 10 mM MgCl) for 15 minutes with mixing. 50 μl of bead/membrane mixture is then added to each well of a 96 well plate, followed by […] of 4 nM 3H-Vasopressin (American Radiolabeled Chemicals). For total binding measurement 100 μl of binding buffer are added to the respective wells, for non-specific binding 100 μl of […] cold vasopressin and for compound testing 100 μl of a serial dilution of each compound in 2% DMSO. The plate is incubated 1 h at room temperature, centrifuged 1 min at 1000 g and counted on a Packard Top-Count. Non-specific binding counts are subtracted from each well and data is normalized to the maximum specific binding set at 100%. To calculate an IC 50 the curve is fitted using a non-linear regression model (XLfit) and the Ki is calculated using the Cheng-Prussoff equation.

human V1a receptor, sequence (P37288 whole entry): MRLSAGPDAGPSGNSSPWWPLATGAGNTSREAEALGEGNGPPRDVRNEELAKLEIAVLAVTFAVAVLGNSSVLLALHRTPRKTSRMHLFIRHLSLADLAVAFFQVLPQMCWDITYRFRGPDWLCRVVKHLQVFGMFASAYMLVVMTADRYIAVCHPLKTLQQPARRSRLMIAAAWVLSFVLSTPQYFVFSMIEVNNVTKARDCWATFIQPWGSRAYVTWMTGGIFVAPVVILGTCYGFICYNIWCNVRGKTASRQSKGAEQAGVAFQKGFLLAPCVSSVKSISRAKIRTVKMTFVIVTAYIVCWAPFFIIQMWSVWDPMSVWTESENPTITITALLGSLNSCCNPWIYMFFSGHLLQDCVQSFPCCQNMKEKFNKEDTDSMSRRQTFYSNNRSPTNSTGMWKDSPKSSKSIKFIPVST

Structure (SMILES) | pKi hV1a
Cc1cccc2c1C(=O)OC21CCN(C2=NC(=O)C3(Cc4ccccc4C3)O2)CC1 [Example 5, 4-methyl-1′-(4′-oxo-1,3-dihydro-4′H-spiro[indene-2,5′-[1,3]oxazol]-2′-yl)-3H-spiro[2-benzofuran-1,4′-piperidin]-3-one] | 8.0
O=C1N=C(N2CCC3(CC2)OCc2ncccc23)OC12Cc1ccccc1C2 [Example 37, 2′-(1′H,7H-spiro[furo[3,4-b]pyridine-5,4′-piperidin]-1′-yl)-1,3-dihydro-4′H-spiro[indene-2,5′-[1,3]oxazol]-4′-one] | 8.0
Cc1cnc2c(c1)C(=O)OC21CCN(C2=NC(=O)C3(Cc4ccccc4C3)O2)CC1 [Example 45, 3-methyl-1′-(4′-oxo-1,3-dihydro-4′H-spiro[indene-2,5′-[1,3]oxazol]-2′-yl)-5H-spiro[furo[3,4-b]pyridine-7,4′-piperidin]-5-one] | 7.6
O=C1N=C(N2CCC3(CC2)OCc2ccccc23)OC12Cc1cc(F)c(F)cc1C2 [Example 34, 5,6-difluoro-2′-(1′H,3H-spiro[2-benzofuran-1,4′-piperidin]-1′-yl)-1,3-dihydro-4′H-spiro[indene-2,5′-[1,3]oxazol]-4′-one] | 9.4
O=C1OC2(CCN(C3=NC(=O)C4(CCc5ccccc5C4)O3)CC2)c2ccccc21 (stereo not shown) [Example 65, 1′-(4′-oxo-3,4-dihydro-1H,4′H-spiro[naphthalene-2,5′-[1,3]oxazol]-2′-yl)-1′H,3H-spiro[2-benzofuran-1,4′-piperidin]-3-one] | 8.8
Cc1cc2c(cn1)CC1(C2)OC(N2CCC3(CC2)OCc2ccccc23)=NC1=O (stereo not shown) [Example 58, 3-methyl-2′-(1′H,3H-spiro[2-benzofuran-1,4′-piperidin]-1′-yl)-5,7-dihydro-4′H-spiro[cyclopenta[c]pyridine-6,5′-[1,3]oxazol]-4′-one] | 7.7
O=C1OC2(CCN(C3=NC(=O)C4(Cc5ccccc5C4)O3)CC2)c2cc(O)c(O)cc21 [Example 13, 5,6-dihydroxy-1′-(4′-oxo-1,3-dihydro-4′H-spiro[indene-2,5′-[1,3]oxazol]-2′-yl)-3H-spiro[2-benzofuran-1,4′-piperidin]-3-one] | 8.2
O=C1OC2(CCN(C3=NC(=O)C4(Cc5ccccc5C4)O3)CC2)c2cccc(F)c21 [Example 14, 4-fluoro-1′-(4′-oxo-1,3-dihydro-4′H-spiro[indene-2,5′-[1,3]oxazol]-2′-yl)-3H-spiro[2-benzofuran-1,4′-piperidin]-3-one] | 8.5
COc1ccc2c(c1)CC1(C2)OC(N2CCC3(CC2)OC(C)(C)c2ncccc23)=NC1=O (stereo not shown) [Example 40, 2′-(7,7-dimethyl-1′H,7H-spiro[furo[3,4-b]pyridine-5,4′-piperidin]-1′-yl)-5-methoxy-1,3-dihydro-4′H-spiro[indene-2,5′-[1,3]oxazol]-4′-one] | 8.3
O=C1N=C(N2CCC3(CC2)OCc2ccccc23)OC12Cc1cnc(C(F)(F)F)cc1C2 (stereo not shown) [Example 61, 2′-(1′H,3H-spiro[2-benzofuran-1,4′-piperidin]-1′-yl)-3-(trifluoromethyl)-5,7-dihydro-4′H-spiro[cyclopenta[c]pyridine-6,5′-[1,3]oxazol]-4′-one] | 8.5
Cc1cnc2c(c1)C1(CCN(C3=NC(=O)C4(Cc5ccccc5C4)O3)CC1)OC2 [Example 52, 2′-(3-methyl-1′H,7H-spiro[furo[3,4-b]pyridine-5,4′-piperidin]-1′-yl)-1,3-dihydro-4′H-spiro[indene-2,5′-[1,3]oxazol]-4′-one] | 8.3
Cc1cccc2c1COC21CCN(C2=NC(=O)C3(Cc4ccccc4C3)O2)CC1 [Example 4] | 8.2
O=C1OC2(CCN(C3=NC(=O)C4(Cc5cc(F)c(F)cc5C4)O3)CC2)c2ccccc21 [Example 35, 1′-(5,6-difluoro-4′-oxo-1,3-dihydro-4′H-spiro[indene-2,5′-[1,3]oxazol]-2′-yl)-3H-spiro[2-benzofuran-1,4′-piperidin]-3-one] | 8.9
COc1ccc2c(c1)CC1(C2)OC(N2CCC3(CC2)OC(=O)c2ccccc23)=NC1=O (stereo not shown) [Example 27, 1′-(5-methoxy-4′-oxo-1,3-dihydro-4′H-spiro[indene-2,5′-[1,3]oxazol]-2′-yl)-3H-spiro[2-benzofuran-1,4′-piperidin]-3-one] | 7.7
O=C1OC2(CCN(C3=NC(=O)C4(Cc5ccccc5C4)O3)CC2)c2ccc(O)cc21 [Example 9, 5-hydroxy-1′-(4′-oxo-1,3-dihydro-4′H-spiro[indene-2,5′-[1,3]oxazol]-2′-yl)-3H-spiro[2-benzofuran-1,4′-piperidin]-3-one] | 9.7
Cc1ccc2c(c1)C1(CCN(C3=NC(=O)C4(Cc5ccccc5C4)O3)CC1)OC2=O [Example 7, 6-methyl-1′-(4′-oxo-1,3-dihydro-4′H-spiro[indene-2,5′-[1,3]oxazol]-2′-yl)-3H-spiro[2-benzofuran-1,4′-piperidin]-3-one] | 8.8
O=C1N=C(N2CCC3(CC2)OCc2ccccc23)OC12Cc1ccccc1C2 [Example 1, 2′-(1′H,3H-spiro[2-benzofuran-1,4′-piperidin]-1′-yl)-1,3-dihydro-4′H-spiro[indene-2,5′-[1,3]oxazol]-4′-one] | 9.5
O=C1N=C(N2CCC3(CC2)OCc2ccccc23)OC12Cc1cnc(C(F)F)cc1C2 (stereo not shown) [Example 60, 3-(difluoromethyl)-2′-(1′H,3H-spiro[2-benzofuran-1,4′-piperidin]-1′-yl)-5,7-dihydro-4′H-spiro[cyclopenta[c]pyridine-6,5′-[1,3]oxazol]-4′-one] | 7.7
O=C1OC2(CCN(C3=NC(=O)C4(Cc5ccc(O)cc5C4)O3)CC2)c2ccccc21 (stereo not shown) [Example 28, 1′-(5-hydroxy-4′-oxo-1,3-dihydro-4′H-spiro[indene-2,5′-[1,3]oxazol]-2′-yl)-3H-spiro[2-benzofuran-1,4′-piperidin]-3-one] | 8.4
Cc1ccc2c(c1)CC1(C2)OC(N2CCC3(CC2)OC(=O)c2ccccc23)=NC1=O (stereo not shown) [Example 22, 1′-(5-methyl-4′-oxo-1,3-dihydro-4′H-spiro[indene-2,5′-[1,3]oxazol]-2′-yl)-3H-spiro[2-benzofuran-1,4′-piperidin]-3-one] | 8.9
COc1cc2c(cc1OC)CC1(C2)OC(N2CCC3(CC2)OC(=O)c2ccccc23)=NC1=O [Example 32, 1′-(5,6-dimethoxy-4′-oxo-1,3-dihydro-4′H-spiro[indene-2,5′-[1,3]oxazol)-2′-yl)-3H-spiro[2-benzofuran-1,4′-piperidin]-3-one] | 6.4
O=C1N=C(N2CCC3(CC2)OCc2ccccc23)O[C@@]12CCc1ccccc12 [Example 20, (+)-2′-(1′H,3H-spiro[2-benzofuran-1,4′-piperidin]-1′-yl)-2,3-dihydro-4′H-spiro[indene-1,5′-[1,3]oxazol]-4′-one] | 6.6
CC1(C)OC2(CCN(C3=NC(=O)C4(Cc5ccccc5C4)O3)CC2)c2cc(O)cnc21 [Example 71, 2′-(3-hydroxy-7,7-dimethyl-1′H,7H-spiro[furo[3,4-b]pyridine-5,4′-piperidin]-1′-yl)-1,3-dihydro-4′H-spiro[indene-2,5′-[1,3]oxazol]-4′-one] | 10.2
O=C1OC2(CCN(C3=NC(=O)C4(Cc5ccccc5C4)O3)CC2)c2ccc(Br)cc21 [Example 18, 5-bromo-1′-(4′-oxo-1,3-dihydro-4′H-spiro[indene-2,5′-[1,3]oxazol]-2′-yl)-3H-spiro[2-benzofuran-1,4′-piperidin]-3-one] | 8.4
CC1(C)OC2(CCN(C3=NC(=O)C4(Cc5ccccc5C4)O3)CC2)c2ccc(O)nc21 [Example 72, 2′-(2-hydroxy-7,7-dimethyl-1′H,7H-spiro[furo[3,4-b]pyridine-5,4′-piperidin]-1′-yl)-1,3-dihydro-4′H-spiro[indene-2,5′-[1,3]oxazol]-4′-one] | 8.5
COc1ccc2c(c1)C(=O)OC21CCN(C2=NC(=O)C3(Cc4ccccc4C3)O2)CC1 [Example 8, 5-methoxy-1′-(4′-oxo-1,3-dihydro-4′H-spiro[indene-2,5′-[1,3]oxazol]-2′-yl)-3H-spiro[2-benzofuran-1,4′-piperidin]-3-one] | 8.5
COc1cc2c(cc1OC)C1(CCN(C3=NC(=O)C4(Cc5ccccc5C4)O3)CC1)OC2=O [Example 12, 5,6-dimethoxy-1′-(4′-oxo-1,3-dihydro-4′H-spiro[indene-2,5′-[1,3]oxazol)-2′-yl)-3H-spiro[2-benzofuran-1,4′-piperidin]-3-one] | 7.5
Cc1ccc2c(n1)C1(CCN(C3=NC(=O)C4(Cc5ccccc5C4)O3)CC1)OC2 [Example 42, 2′-(2-methyl-1′H,5H-spiro[furo[3,4-b]pyridine-7,4′-piperidin]-1′-yl)-1,3-dihydro-4′H-spiro[indene-2,5′-[1,3]oxazol]-4′-one] | 9.1

— patent US11578077B2, “Spiro-oxazolones” (Hoffmann-La Roche Inc., priority 2013, dated 2023)
